Experimental data: patent US20220081389A1, “AMIDE COMPOUNDS AND PREPARATION METHOD THEREFOR AND USE THEREOF” (CAC NANTONG CHEMICAL CO., LTD., priority 2019, published 2022)
Like-named read-outs stand apart in the source and are kept apart here. Blank lines part the entries; values can stand above or below the compound they belong to.

Experiments:
Aphis craccivora = experiment: Insecticidal activity test against Aphis craccivora (broad bean leaf dip); assay type: in vivo
Description: (§1) Various kinds of pests were tested with the compounds of this invention. Unless otherwise specified, the preparation method of samples and definition of the mortality rate of the insects in the embodiments and this invention are as follows: the preparation method of samples is to weigh 10 mg of the compound and dissolve it in 1 mL DMF to prepare 10,000 ppm mother liquid, which is diluted to necessary concentration by 0.05% Tween-80 water, respectively. The mortality rate is the mortality rate of pests under the test concentration, whose calculating formula is: mortality rate (%)=Number of dead pests/total pests*100
Cut a single leaf of broad bean with stem and insert it into a glass jar filled with water (capacity of 20 ml). Five adult Aphis craccivoras were seeded onto each leaf, and covered with plastic cups with holes. The adult aphids were removed after 24 hours. Before the experiment, the base number was investigated and the single leaf with more than 15 nymphs aphids was selected for the experiment. Dip leaf of broad bean with nymphs aphids into the solution of test compound 10s, take out and dry them in a cool environment, 3 parallel repeats. Place the glass jars on the shelf of observation room and covered with plastic cups with holes. 20-25° C. with 14 hL: 10 hD illumination. The number of Aphis craccivora death and alive was investigated on the 3rd day after treatment, and the mortality was calculated.

Spodoptera litura = experiment: Insecticidal activity test against Spodoptera litura (leaf dip, cabbage leaf discs); assay type: in vivo; details: foliar; for mortality at 0.04 ppm / mortality at 0.1 ppm: 72 h, 3 d; for mortality at 0.4 ppm: 3rd day after treatment
Description: as §1
The leaf dip method was used to assay the insecticidal activity. Healthy and pesticide-untreated cabbage leaves was selected to prepare 1 cm of leaf discs by diameter. Dip the leaf discs into the solution prepared with compound of this invention for 10 seconds and dry them in a cool […] environment. Then place them in 24-well plate with 3 discs per pore. Put 10 of Spodoptera litura into each pore, which was repeated by 3 times. The 24-well plate was placed in an illumination incubator and incubated with 14 hL: 10 hD illumination at 25° C. The dead number of Spodoptera litura was investigated on the 3rd day after treatment, and the mortality was calculated.

Spodoptera frugiperda = experiment: Insecticidal activity test against Spodoptera frugiperda (leaf dip, maize seedlings); assay type: in vivo; details: for Mortality (%) against Spodoptera frugiperda, 1 d / Mortality (%) against Spodoptera frugiperda, 2 d / Mortality (%) against Spodoptera frugiperda, 3 d: 0.1 ppm, leaf dip, 3rd-instar larvae; for Mortality (%) against Spodoptera frugiperda, 1 d: 1st day after treatment; for Mortality (%) against Spodoptera frugiperda, 2 d: 2nd day after treatment; for Mortality (%) against Spodoptera frugiperda, 3 d: 3rd day after treatment; for mortality at 0.1 ppm / mortality at 1 ppm: Spodoptera frugiperda, foliar; for mortality at 1 ppm: read-out: insecticidal activity (mortality of Spodoptera frugiperda)
Description: as §1
(§2) The leaf dip method was used to assay the insecticidal activity. Cut above ground part of fresh maize seedlings (about 10 cm). Dip the maize seedlings into the solution prepared with compound of this invention for 10 seconds and dry them in a cool environment. Then cut the dry maize seedlings into 3-5 cm leaf sections and put 3 leaf sections into each petri dish. Put ten of 3th-instar larvae of Spodoptera frugiperda into each dish, which was repeated by 3 times. Then the dishes were placed in an illumination incubator and incubated with 14 hL: 10 hD illumination at 25° C. Symptoms were investigated on the 1st, 2nd and 3rd day after treatment, and the mortality was calculated.

Chilo suppressalis = experiment: Insecticidal activity test against Chilo suppressalis (rice stem dip); assay type: in vivo
Description: as §1
The rice was cultivated in a plastic pot with a diameter of 9 cm and a height of 10 cm. When the rice grew to 25 cm, the aerial part of robust and consistent rice seedlings was selectively cut. Their leaves were removed and their stems of about 8 cm were kept for use. Pour the solution prepared with compound of this invention into the Petri dish (about 40 mL) and dip the rice stems into the solution for 10 seconds. Take rice stems out and dry them in a cool environment. Put a wet cotton ball at the bottom of finger-like glass tube and 5 rice stems in each tube. Put 10 of 3rd-instar larvae of Chilo suppressa into each tube, which was repeated by 3 times. Seal the tubes with black cotton cloth and tighten them with rubber band. The tubes were placed in a illumination incubator at 28° C. and incubated in the dark (incubated without light). The dead number of Chilo suppressalis was investigated 3 days after treatment. The mortality was calculated.

Mythimna separata = experiment: Insecticidal activity test against Mythimna separata (leaf dip, maize seedlings); assay type: in vivo; details: foliar; for mortality at 0.04 ppm: 3rd day after treatment, read-out: insecticidal activity (mortality of Mythimna separate)
Description: as §1
as §2, with “Mythimna separatas” for “Spodoptera frugiperda”

[1] = 72 h, 3 d, read-out: Mortality (%, 3 d) 1 ppm
[2] = 72 h, 3 d, read-out: Mortality (%, 3 d) 2 ppm
[3] = 24 h, read-out: Mortality (%) against Spodoptera frugiperda, 1 d
[4] = 48 h, read-out: Mortality (%) against Spodoptera frugiperda, 2 d
[5] = 72 h, read-out: Mortality (%) against Spodoptera frugiperda, 3 d
[6] = 3rd day after treatment, read-out: insecticidal activity (mortality of Chilo suppressalis)
[7] = Aphis craccivora, foliar, 40 ppm, 3rd day after treatment, read-out: insecticidal activity (mortality of Aphis craccivora)
[8] = 24 h, 1 d, read-out: Mortality (%) 1 d
[9] = 48 h, 2 d, read-out: Mortality (%) 2 d
[10] = 72 h, 3 d, read-out: Mortality (%) 3 d

SMILES: O=C(Nc1c(Br)cc(C(F)(C(F)(F)F)C(F)(F)F)cc1C(F)(F)F)c1cccc(N(CC2CC2)C(=O)c2ccc(F)cc2)c1F [KC4, reference compound]
mortality at 1 ppm (Aphis craccivora; Aphis craccivora, foliar, 72 h, 1 ppm, 3 d): 0%
mortality at 10 ppm (Aphis craccivora; Aphis craccivora, foliar, 72 h, 10 ppm, 3 d): 47.1%
mortality at 40 ppm (Aphis craccivora; Aphis craccivora, foliar, 72 h, 40 ppm, 3 d, read-out: Mortality (%, 3 d) 40 ppm): 65.2%
mortality at 0.04 ppm (Spodoptera litura): 8.83%
mortality at 0.1 ppm (Spodoptera litura): 75%

SMILES: O=C(Nc1c(Br)cc(C(F)(C(F)(F)F)C(F)(F)F)cc1OC(F)F)c1cccc(N(CC2CC2)C(=O)c2ccnc(F)c2)c1F [Compound 120]
Mortality (%) against Spodoptera frugiperda, 1 d (Spodoptera frugiperda): 58.33%
Mortality (%) against Spodoptera frugiperda, 2 d (Spodoptera frugiperda): 100%
Mortality (%) against Spodoptera frugiperda, 3 d (Spodoptera frugiperda): 100%

SMILES: O=C(Nc1c(Br)cc(C(F)(C(F)(F)F)C(F)(F)F)cc1OC(F)(F)F)c1cccc(N(CC2CC2)C(=O)c2ccccc2)c1F [KC3, reference compound]
mortality at 0.5 ppm (Chilo suppressalis; 72 h, 3 d): 20%
mortality at 1 ppm (Chilo suppressalis; [1]): 80%
mortality at 2 ppm (Chilo suppressalis; [2]): 96.7%
mortality at 0.1 ppm (Spodoptera frugiperda; [3]): 0%
mortality at 0.1 ppm (Spodoptera frugiperda; [4]): 0%
mortality at 0.1 ppm (Spodoptera frugiperda; [5]): 4.17%

SMILES: O=C(Nc1c(Br)cc(C(F)(C(F)(F)F)C(F)(F)F)cc1OC(F)F)c1cccc(N(CC2CC2)C(=O)c2ccnc(Cl)c2)c1F [Compound 119]
Mortality (%) against Spodoptera frugiperda, 1 d (Spodoptera frugiperda): 54.17%
Mortality (%) against Spodoptera frugiperda, 2 d (Spodoptera frugiperda): 79.17%
Mortality (%) against Spodoptera frugiperda, 3 d (Spodoptera frugiperda): 91.67%

SMILES: N#Cc1ccc(C(=O)N(CC2CC2)c2cccc(C(=O)Nc3c(Br)cc(C(F)(C(F)(F)F)C(F)(F)F)cc3OC(F)F)c2F)cc1 [Compound 14]
Mortality (%) against Spodoptera frugiperda, 1 d (Spodoptera frugiperda): 29.17%
Mortality (%) against Spodoptera frugiperda, 2 d (Spodoptera frugiperda): 79.17%
Mortality (%) against Spodoptera frugiperda, 3 d (Spodoptera frugiperda): 95.83%

melting point: 133.1 to 135.5 °C
SMILES: N#Cc1ccc(C(=O)N(CC2CC2)c2cccc(C(=O)Nc3c(Br)cc(C(C(F)(F)F)C(F)(F)F)cc3OC(F)F)c2F)cc1 [Compound 26, N-(2-bromo-6-(difluoromethoxy)-4-(1,1,1,3,3,3-hexafluoropropan-2-yl)phenyl)-3-(4-cyano-N-(cyclopropylmethyl)benzamido)-2-fluorobenzamide]

SMILES: O=C(Nc1c(Br)cc(C(F)(C(F)(F)F)C(F)(F)F)cc1OC(F)F)c1cccc(N(CC2CC2)C(=O)c2ccc(F)nc2)c1F [Compound 118, N-(3-((2-bromo-6-(difluoromethoxy)-4-(perfluoropropan-2-yl)phenyl)carbamoyl)-2-fluorophenyl)-N-(cyclopropylmethyl)-6-fluoronicotinamide]
mortality at 0.04 ppm (Mythimna separata): ≥ 90%
mortality at 1 ppm (Chilo suppressalis; [6]): ≥ 90%
mortality at 40 ppm (Aphis craccivora; [7]): ≥ 90%
mortality at 0.1 ppm (Spodoptera frugiperda; [3]): 29.2%
mortality at 0.1 ppm (Spodoptera frugiperda; [4]): 66.7%
mortality at 0.1 ppm (Spodoptera frugiperda; [5]): 91.7%
mortality at 1 ppm (Spodoptera frugiperda): ≥ 90%
mortality at 0.4 ppm (Spodoptera litura): ≥ 90%
mortality at 0.04 ppm (Spodoptera litura): 66.7%
mortality at 0.1 ppm (Spodoptera litura): 95.8%

SMILES: CC(C1CC1)N(C(=O)c1ccnc(Cl)c1)c1cccc(C(=O)Nc2c(Br)cc(C(F)(C(F)(F)F)C(F)(F)F)cc2C(F)(F)F)c1F (stereo not drawn) [Compound 124, N-(3-((2-bromo-4-(perfluoropropan-2-yl)-6-(trifluoromethyl)phenyl)carbamoyl)-2-fluorophenyl)-2-chloro-N-(1-cyclopropylethyl)isonicotinamide]
mortality at 2 ppm (Chilo suppressalis; [6]): ≥ 90%

SMILES: O=C(Nc1c(Br)cc(C(F)(C(F)(F)F)C(F)(F)F)cc1C(F)(F)F)c1cccc(N(CC2CC2)C(=O)c2ccncc2)c1F [Compound 101]
Mortality (%, 3 d) 1 ppm (Aphis craccivora; 1 ppm, 3 d): 39.11%
Mortality (%, 3 d) 10 ppm (Aphis craccivora; 10 ppm, 3 d): 83.26%
Mortality (%, 3 d) 40 ppm (Aphis craccivora; 40 ppm, 3 d): 100.00%

SMILES: O=C(Nc1c(Br)cc(C(F)(C(F)(F)F)C(F)(F)F)cc1C(F)(F)F)c1cccc(N(CC2CC2)C(=O)c2ccc(F)nc2)c1F [Compound 106, N-(3-((2-bromo-4-(perfluoropropan-2-yl)-6-(trifluoromethyl)phenyl)carbamoyl)-2-fluorophenyl)-N-(cyclopropylmethyl)-6-fluoronicotinamide]
mortality at 0.04 ppm (Mythimna separata): ≥ 90%
mortality at 1 ppm (Chilo suppressalis; [6]): ≥ 90%
mortality at 0.1 ppm (Spodoptera frugiperda; [3]): 41.7%
mortality at 0.1 ppm (Spodoptera frugiperda; [4]): 62.5%
mortality at 0.1 ppm (Spodoptera frugiperda; [5]): 95.8%
mortality at 1 ppm (Spodoptera frugiperda): ≥ 90%
mortality at 0.4 ppm (Spodoptera litura): ≥ 90%

SMILES: O=C(Nc1c(Br)cc(C(F)(C(F)(F)F)C(F)(F)F)cc1OC(F)F)c1cccc(N(CC2CC2)C(=O)c2ccccc2)c1F [Compound 1, N-(2-bromo-4-(perfluoropropan-2-yl)-6-(difluoromethoxy)phenyl)-3-(N-(cyclopropylmethyl)benzamido)-2-fluorobenzamide]
mortality at 0.04 ppm (Mythimna separata): ≥ 90%
mortality at 1 ppm (Chilo suppressalis; [6]): ≥ 90%
mortality at 0.5 ppm (Chilo suppressalis; 72 h, 3 d): 76.7%
mortality at 1 ppm (Chilo suppressalis; [1]): 96.7%
mortality at 2 ppm (Chilo suppressalis; [2]): 100%
mortality at 1 ppm (Spodoptera frugiperda): ≥ 90%
mortality at 0.4 ppm (Spodoptera litura): ≥ 90%

SMILES: CCN(C(=O)c1ccc(F)cc1)c1cccc(C(=O)Nc2c(Br)cc(C(F)(C(F)(F)F)C(F)(F)F)cc2OC(F)F)c1F [KC1, reference compound]
mortality at 0.01 ppm (Mythimna separata; [8]): 6.67%
mortality at 0.01 ppm (Mythimna separata; [9]): 16.7%
mortality at 0.01 ppm (Mythimna separata; [10]): 20%

SMILES: CCN(C(=O)c1ccncc1)c1cccc(C(=O)Nc2c(Br)cc(C(F)(C(F)(F)F)C(F)(F)F)cc2OC(F)F)c1F [KC2, reference compound]
mortality at 0.1 ppm (Spodoptera frugiperda; [3]): 0%
mortality at 0.1 ppm (Spodoptera frugiperda; [4]): 8.33%
mortality at 0.1 ppm (Spodoptera frugiperda; [5]): 20.8%

SMILES: O=C(Nc1c(Br)cc(C(F)(C(F)(F)F)C(F)(F)F)cc1OC(F)F)c1cccc(N(CC2CC2)C(=O)c2ccc(Cl)cc2)c1F [Compound 44]
Mortality (%) against Spodoptera frugiperda, 1 d (Spodoptera frugiperda): 37.50%
Mortality (%) against Spodoptera frugiperda, 2 d (Spodoptera frugiperda): 62.50%
Mortality (%) against Spodoptera frugiperda, 3 d (Spodoptera frugiperda): 91.67%

SMILES: O=C(Nc1c(Br)cc(C(F)(C(F)(F)F)C(F)(F)F)cc1OC(F)F)c1cccc(N(CC2CC2)C(=O)c2ccc(F)cc2)c1F [Compound 31, N-(2-bromo-6-(difluoromethoxy)-4-(perfluoropropan-2-yl)phenyl)-3-(N-(cyclopropylmethyl)-4-fluorobenzamido)-2-fluorobenzamide]
mortality at 0.04 ppm (Mythimna separata): ≥ 90%
mortality at 0.01 ppm (Mythimna separata; [8]): 13.3%
mortality at 0.01 ppm (Mythimna separata; [9]): 63.3%
mortality at 0.01 ppm (Mythimna separata; [10]): 70%
mortality at 1 ppm (Chilo suppressalis; [6]): ≥ 90%
mortality at 0.5 ppm (Chilo suppressalis; 72 h, 3 d): 83.3%
mortality at 1 ppm (Chilo suppressalis; [1]): 100%
mortality at 2 ppm (Chilo suppressalis; [2]): 100%
mortality at 40 ppm (Aphis craccivora; [7]): ≥ 90%
mortality at 0.1 ppm (Spodoptera frugiperda; [3]): 100%
mortality at 0.1 ppm (Spodoptera frugiperda; [4]): 100%
mortality at 0.1 ppm (Spodoptera frugiperda; [5]): 100%
mortality at 1 ppm (Spodoptera frugiperda): ≥ 90%
mortality at 0.4 ppm (Spodoptera litura): ≥ 90%
